Results on 1 compound are retold here after ChEMBL document CHEMBL3886281, “Furo[3,4-c]quinoline derivatives, medicaments containing such compounds, their use and process for their preparation” (2015).

Each structure is given as a SMILES string.

The target of this test is T1, Cholesteryl ester transfer protein (Homo sapiens, UniProt P11597).
T1 sequence (P11597 whole entry): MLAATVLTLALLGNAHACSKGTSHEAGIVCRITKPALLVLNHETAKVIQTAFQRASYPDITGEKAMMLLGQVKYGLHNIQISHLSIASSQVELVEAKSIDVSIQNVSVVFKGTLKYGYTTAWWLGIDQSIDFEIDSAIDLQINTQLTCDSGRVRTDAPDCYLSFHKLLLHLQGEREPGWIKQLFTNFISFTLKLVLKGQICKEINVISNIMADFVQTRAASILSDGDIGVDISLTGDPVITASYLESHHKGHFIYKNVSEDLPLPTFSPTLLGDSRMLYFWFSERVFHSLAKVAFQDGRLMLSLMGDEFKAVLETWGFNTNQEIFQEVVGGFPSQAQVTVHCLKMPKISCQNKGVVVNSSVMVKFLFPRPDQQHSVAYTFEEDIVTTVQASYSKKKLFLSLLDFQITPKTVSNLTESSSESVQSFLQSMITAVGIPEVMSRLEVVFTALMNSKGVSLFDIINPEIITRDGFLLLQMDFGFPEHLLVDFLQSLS
The test is described as follows: CETP In Vitro Assay: CETP inhibitory activity of compounds of the present invention can be determined in a fluorometric assay purchased from Roar Biomedical, Inc. (New York, N.Y., USA). […] Recombinant human CETP was partially purified from medium conditioned by CETP expressing CHO cells. In a 384 well format 2.5 ul of compound solution in DMSO was combined with 2 ul of donor solution, 2 ul of acceptor solution and 0.8 ul of recombinant human CETP solution in a total volume of 100 ul with assay buffer and incubated for 3 hours at 37° C. The fluorescence intensity was measured at excitation wavelength of 485 nm and emission wavelength of 535 nm.

`CC(C)c1nc2c(c3c1[C@@H](c1ccc(C(F)(F)F)nc1)OC31CCOCC1)[C@@H](O)CC1(CC1)[C@H]2O`: the IC50 (commonly the concentration that gives 50% inhibition) worked out at 210 nM.
